Results published in US20130259944A1, “METHODS AND COMPOSITIONS FOR TREATING CANCER WITH PLATINUM PARTICLES” (EMORY UNIVERSITY, priority 2012, published 2013).

Columns and labels:
[1] = tested on: H292 cells (EGFR-positive NSCLC); test: Intracellular platinum accumulation in H292 cells (ICP-MS); type: cell-based, human; details: 0.4 μg/mL, 24 h
Method: (§1) EGFR-negative H520 cells were used as negative control. […] The cell pellet was digested in 65% (v/v) nitric acid at 75° C. for 2 h. The Pt content was analyzed by ICP-MS. Cellular Pt levels were expressed in ng Pt/10^6 cells. To further check the targeting specificity of EHDDP nanoparticles in vitro, EGFR was knocked down by EGFR small interfering RNAs (siRNA). H292 cells were transfected with EGFR siRNA (sc-29301 from Santa Cruz Bio) (100 pmol) or scrambled siRNA (sc-37007 from Santa Cruz Bio) (100 pmol) as a nonspecific control according to the manufacturer's protocols. Briefly, in a 6-well tissue culture plate, 2×10^5 cells per well were seeded in 2 mL of antibiotic-free RPMI 1640 medium supplemented with 10% FBS and, on the following day, transfected with siRNAs at the final concentration of 100 pmol. […] Mouse anti-β-actin antibody (Trevigen, Gaithersburg, Md.) was used as a sample loading control. Immunostained protein bands were detected with an enhanced chemiluminescence kit (Thermo Scientific, Rockfield, Ill.). […] The data are shown as mean±SD (n=3). DDP-DNA adduct formation was measured using 1×10^7 cells per condition. […] In addition, the expression level of the phosphorylation of H2A.X was detected by Western Blot as described above using the Phospho-Histone H2A.X (Ser139) (20E3) rabbit mAb (Cell Signaling Technology, Inc.).

[2] = tested on: H520 cells (EGFR-negative NSCLC); test: Intracellular platinum accumulation in H520 cells (ICP-MS); type: cell-based, human; details: 24 h
Method: as §1

[3] = tested on: H292 cells; test: SRB cytotoxicity assay; type: cell-based, human; details: 96 h
Method: H292 and H520 cells maintained in medium with 2% FBS were seeded in 96-well plates at a density of 5000 cells/well overnight prior to drug treatment. […] Cells were fixed for 1 h with 10% cold trichloroacetic acid. Plates were washed five times in water, air-dried, and then stained with 0.4% SRB for 10 min. […] Plates were read in a microplate reader by measuring absorbance at 492 nm. The percent survival was then calculated based upon the absorbance values relative to untreated samples. The experiment was repeated three times.

[4] = tested on: H292 cells; test: Pt-DNA adduct formation in vitro (ICP-MS of purified DNA); type: cell-based, human; details: 37° C., 24 h
Method: as §1

[5] = Concentration profile of Pt in mice peripheral blood; type: in vivo, nude mice; details: for Pt concentration in blood: Pt 2.5 mg/kg
Method: The whole blood samples were dissolved in 65% (v/v) nitric acid at 75° C. for 2 h, and Pt concentration was measured by ICP-MS.

[6] = Biodistribution of Pt in organs and tumor of H292 tumor-bearing mice; type: in vivo, nude mice
Method: (§2) Blood, organs (liver, spleen, kidney, and lung), and tumor tissue were harvested, half of the organs were dissolved in 65% (v/v) nitric acid at 75° C. for 2 h, and Pt concentrations were measured by ICP-MS. The blood and other half of the organs were used to extract DNA, and the Pt concentration in DNA was quantified as described above.

[7] = Pt-DNA adducts in kidney and tumor in vivo; set-up: species or system nude mice; details: single iv dose Pt 2.5 mg/kg
Method: as §2

Structure (SMILES): N.N.[Cl][Pt][Cl] [DDP, cis-diamminedichloroplatinum(II)]
- intracellular Pt level [1]: 2.49±0.39 ng Pt/10^6 cells
- intracellular Pt accumulation [2]: 3.38±0.42 ng Pt/10^6 cells
- IC50 (Pt concentration) [3]: 2.12 ± 0.20 µg/mL
- Pt level associated with cellular DNA (Pt-DNA adducts) [4]: 19.68±4.35 pg Pt/μg DNA
- Pt concentration in blood ([5]; 30 min after iv injection): 1.17±0.12 ng/mg blood
- Pt concentration in blood ([5]; 8 h after iv injection): 0.36±0.09 ng/mg blood
- time of elimination by the renal system ([5]; discussion statement): < 5 min
- tumor Pt level ([6]; 10 min after iv injection): 3.58±0.91 ng/mg dry tissue
- Pt concentration in kidney ([6]; 10 min after systemic administration): 35.25±5.70 ng/mg dry tissue
- Pt concentration in kidney ([6]; 4 h): 11.9±0.79 ng/mg dry tissue
- accumulation of Pt in the liver ([6]; 4 h, single iv dose Pt 2.5 mg/kg): 7.71±1.61 ng/mg dry tissue
- Pt concentration in kidney ([6]; 24 h): 6.39±0.67 ng/mg dry tissue
- tumor Pt level ([6]; 24 h after iv injection): 1.48±0.52 ng/mg dry tissue
- decrease of Pt concentration in the liver ([6]; 24 h compared with 4 h): 20%
- Pt concentrations in the liver, spleen and kidney, comparison between treatments ([6]; 28 days after treatment): no differences
- decrease of Pt accumulation in the liver ([6]; from 10 min to 4 h): 42.5%
- decrease of Pt accumulation in the spleen ([6]; from 10 min to 4 h): 82.86%
- decrease in Pt accumulation in the kidney ([6]; within 4 h): 65.1%
- Pt concentration in DNA purified from kidney ([7]; 4 h): 71.78±9.02 pg/μg DNA
- Pt-DNA adducts in NSCLC xenograft tumors ([7]; 4 h): 92.21±8.96 pg/μg DNA
- Pt concentration in DNA purified from kidney ([7]; 24 h): 25.72±2.78 pg/μg DNA
- Pt-DNA adducts in NSCLC xenograft tumors ([7]; 24 h): 94.68±15.01 pg/μg DNA
